Reference: publication PMC9516332 (Frontiers in Oncology, 2022)
Like-named read-outs stand apart in the source and are kept apart here.

Assays:
AP-1060 (ETV6-NTRK3) = assay: Cell viability assay; details: read-out: IC50 in cell proliferation assay
134 cancer cell lines = assay: Cell viability assay (ATPlite, 72 hours), IC50 on cancer cell line panel

COc1ccc(CN2C3CC2CN(c2ccc(-c4cc(OCC(C)(C)O)cn5ncc(C#N)c45)cn2)C3)cn1 [selpercatinib]
IC50 (AP-1060 (ETV6-NTRK3)): 3.96 µM
IC50 (134 cancer cell lines; HEC-6, read-out: IC50 in cell proliferation assay, HEC-6 cell line (EGFR p.A289V)): > 31.6 µM
IC50 (134 cancer cell lines; Homo sapiens, 769-P, read-out: IC50 in cell proliferation assay, cell line 769-P): 5.72 µM
IC50 (134 cancer cell lines; Homo sapiens, 786-0, read-out: IC50 in cell proliferation assay, cell line 786-O): 7.5 µM
IC50 (134 cancer cell lines; Homo sapiens, A 172, read-out: IC50 in cell proliferation assay, cell line A-172): 1.33 µM
IC50 (134 cancer cell lines; Homo sapiens, A204, read-out: IC50 in cell proliferation assay, cell line A-204): 2.47 µM
IC50 (134 cancer cell lines; Homo sapiens, A498, read-out: IC50 in cell proliferation assay, cell line A-498): 6.25 µM
IC50 (134 cancer cell lines; Homo sapiens, A549, read-out: IC50 in cell proliferation assay, cell line A-549): 3.75 µM
IC50 (134 cancer cell lines; Homo sapiens, A704, read-out: IC50 in cell proliferation assay, cell line A-704): 2.74 µM
IC50 (134 cancer cell lines; Homo sapiens, A-375, read-out: IC50 in cell proliferation assay, cell line A-375 (BRAF p.V600E)): 4.28 µM
IC50 (134 cancer cell lines; Homo sapiens, A-427, read-out: IC50 in cell proliferation assay, cell line A-427): 1.53 µM
IC50 (134 cancer cell lines; Homo sapiens, ACHN, read-out: IC50 in cell proliferation assay, cell line ACHN): 2.78 µM
IC50 (134 cancer cell lines; Homo sapiens, AN3-CA, read-out: IC50 in cell proliferation assay, cell line AN3-CA (FGFR2 p.N549K)): 0.576 µM
IC50 (134 cancer cell lines; Homo sapiens, ASPC1, read-out: IC50 in cell proliferation assay, cell line AsPC-1): > 31.6 µM
IC50 (134 cancer cell lines; Homo sapiens, AU565, read-out: IC50 in cell proliferation assay, cell line AU565 (ERBB2 amplification)): 2.85 µM
IC50 (134 cancer cell lines; Homo sapiens, BT-20, read-out: IC50 in cell proliferation assay, cell line BT-20): 3.36 µM
IC50 (134 cancer cell lines; Homo sapiens, BT-474, read-out: IC50 in cell proliferation assay, cell line BT-474 (ERBB2 amplification)): 28.7 µM
IC50 (134 cancer cell lines; Homo sapiens, BT-549, read-out: IC50 in cell proliferation assay, cell line BT-549): 3.82 µM
IC50 (134 cancer cell lines; Homo sapiens, BXPC-3, read-out: IC50 in cell proliferation assay, cell line BxPC-3): 3.95 µM
IC50 (134 cancer cell lines; Homo sapiens, C-33-A, read-out: IC50 in cell proliferation assay, cell line C-33 A): 2.85 µM
IC50 (134 cancer cell lines; Homo sapiens, CAL-27, read-out: IC50 in cell proliferation assay, cell line CAL-27): 4.41 µM
IC50 (134 cancer cell lines; Homo sapiens, CCF-STTG1, read-out: IC50 in cell proliferation assay, cell line CCF-STTG1): 7.96 µM
IC50 (134 cancer cell lines; Homo sapiens, CCRF-CEM, read-out: IC50 in cell proliferation assay, cell line CCRF-CEM): 3.45 µM
IC50 (134 cancer cell lines; Homo sapiens, COLO 205, read-out: IC50 in cell proliferation assay, cell line COLO 205 (BRAF p.V600E)): 4.42 µM
IC50 (134 cancer cell lines; Homo sapiens, COLO-829, read-out: IC50 in cell proliferation assay, cell line COLO 829 (BRAF p.V600E)): 10.7 µM
IC50 (134 cancer cell lines; Homo sapiens, DLD-1, read-out: IC50 in cell proliferation assay, cell line DLD-1): 8.43 µM
IC50 (134 cancer cell lines; Homo sapiens, DU-4475, read-out: IC50 in cell proliferation assay, cell line DU4475 (BRAF p.V600E)): 6.24 µM
IC50 (134 cancer cell lines; Homo sapiens, Daoy, read-out: IC50 in cell proliferation assay, cell line Daoy): 3.17 µM
IC50 (134 cancer cell lines; Homo sapiens, DoTc2-4510, read-out: IC50 in cell proliferation assay, cell line DoTc2 4510): 4.18 µM
IC50 (134 cancer cell lines; Homo sapiens, EOL1, read-out: IC50 in cell proliferation assay, cell line EoL-1 (FIP1L1-PDGFRA)): 0.29 µM
IC50 (134 cancer cell lines; Homo sapiens, FaDu, read-out: IC50 in cell proliferation assay, cell line FaDu): 4.82 µM
IC50 (134 cancer cell lines; Homo sapiens, G-361, read-out: IC50 in cell proliferation assay, cell line G-361 (BRAF p.V600E)): 5.87 µM
IC50 (134 cancer cell lines; Homo sapiens, HCC827, read-out: IC50 in cell proliferation assay, cell line HCC827 (EGFR exon19del)): 13.5 µM
IC50 (134 cancer cell lines; Homo sapiens, HCC4006, read-out: IC50 in cell proliferation assay, cell line HCC4006 (EGFR exon19del)): 6.75 µM
IC50 (134 cancer cell lines; Homo sapiens, HCT-15, read-out: IC50 in cell proliferation assay, cell line HCT 15): 10.7 µM
IC50 (134 cancer cell lines; Homo sapiens, HCT-116, read-out: IC50 in cell proliferation assay, cell line HCT 116): 14.9 µM
IC50 (134 cancer cell lines; Homo sapiens, HEC-1, read-out: IC50 in cell proliferation assay, HEC-1 cell line): 8.9 µM
IC50 (134 cancer cell lines; Homo sapiens, HEC-1B, read-out: IC50 in cell proliferation assay, HEC-1-B cell line (EGFR p.A864V)): 2.07 µM
IC50 (134 cancer cell lines; Homo sapiens, HL-60, read-out: IC50 in cell proliferation assay, HL-60 cell line): 5.79 µM
IC50 (134 cancer cell lines; Homo sapiens, HT, read-out: IC50 in cell proliferation assay, HT cell line): 4.86 µM
IC50 (134 cancer cell lines; Homo sapiens, HT-1080, read-out: IC50 in cell proliferation assay, HT-1080 cell line): 5.16 µM
IC50 (134 cancer cell lines; Homo sapiens, Hs746T, read-out: IC50 in cell proliferation assay, Hs 746.T cell line (MET exon14skip + amplification)): 28.1 µM
IC50 (134 cancer cell lines; Homo sapiens, Hs-578T, read-out: IC50 in cell proliferation assay, Hs 578T cell line): 3.61 µM
IC50 (134 cancer cell lines; Homo sapiens, HuTu80, read-out: IC50 in cell proliferation assay, HuTu 80 cell line): 1.35 µM
IC50 (134 cancer cell lines; Homo sapiens, J82, read-out: IC50 in cell proliferation assay, J82 cell line): 3.3 µM
IC50 (134 cancer cell lines; Homo sapiens, Jurkat E6.1, read-out: IC50 in cell proliferation assay, Jurkat E6.1 cell line): 4.03 µM
IC50 (134 cancer cell lines; Homo sapiens, K562, read-out: IC50 in cell proliferation assay, K-562 cell line): 5.5 µM
IC50 (134 cancer cell lines; Homo sapiens, KATO III, read-out: IC50 in cell proliferation assay, KATO III cell line (FGFR2 amplification)): 0.241 µM
IC50 (134 cancer cell lines; Homo sapiens, KG-1, read-out: IC50 in cell proliferation assay, KG-1 cell line (FGFR1OP2-FGFR1)): 0.227 µM
IC50 (134 cancer cell lines; Homo sapiens, KLE, read-out: IC50 in cell proliferation assay, KLE cell line): 5.6 µM
IC50 (134 cancer cell lines; Homo sapiens, KMS-11, read-out: IC50 in cell proliferation assay, KMS-11 cell line (FGFR3 p.Y373C)): 0.661 µM
IC50 (134 cancer cell lines; Homo sapiens, KU812, read-out: IC50 in cell proliferation assay, Ku812 cell line): 3.54 µM
IC50 (134 cancer cell lines; Homo sapiens, Kasumi 1, read-out: IC50 in cell proliferation assay, Kasumi-1 cell line (KIT p.N822K)): 0.277 µM
IC50 (134 cancer cell lines; Homo sapiens, LC-2-ad, read-out: IC50 in cell proliferation assay, LC-2/ad cell line (CCDC6-RET)): 0.018 µM
IC50 (134 cancer cell lines; Homo sapiens, LNCaP-Clone-FGC, read-out: IC50 in cell proliferation assay, LNCaP clone FGC cell line): 16.8 µM
IC50 (134 cancer cell lines; Homo sapiens, LS174T, read-out: IC50 in cell proliferation assay, LS174T cell line): 4.21 µM
IC50 (134 cancer cell lines; Homo sapiens, LS-411N, read-out: IC50 in cell proliferation assay, LS411N cell line (BRAF p.V600E)): 3.76 µM
IC50 (134 cancer cell lines; Homo sapiens, LoVo, read-out: IC50 in cell proliferation assay, LoVo cell line): 0.767 µM
IC50 (134 cancer cell lines; Homo sapiens, MCF7, read-out: IC50 in cell proliferation assay, MCF-7 cell line): > 31.6 µM
IC50 (134 cancer cell lines; Homo sapiens, MDA-MB-231, read-out: IC50 in cell proliferation assay, MDA-MB-231 cell line): 28 µM
IC50 (134 cancer cell lines; Homo sapiens, MDA-MB-453, read-out: IC50 in cell proliferation assay, MDA-MB-453 cell line): > 31.6 µM
IC50 (134 cancer cell lines; Homo sapiens, MDA-MB-468, read-out: IC50 in cell proliferation assay, MDA-MB-468 cell line): 5.5 µM
IC50 (134 cancer cell lines; Homo sapiens, MG-63, read-out: IC50 in cell proliferation assay, MG-63 cell line): 3.08 µM
IC50 (134 cancer cell lines; Homo sapiens, MIA PaCa-2, read-out: IC50 in cell proliferation assay, MIA PaCa-2 cell line): 3.4 µM
IC50 (134 cancer cell lines; Homo sapiens, MKN-45, read-out: IC50 in cell proliferation assay, MKN45 cell line (MET amplification)): > 31.6 µM
IC50 (134 cancer cell lines; Homo sapiens, MOLM-13, read-out: IC50 in cell proliferation assay, MOLM-13 cell line (FLT3 ITD)): 0.123 µM
